Laboratory results: publication PMC10545747, “Development of cyclopeptide inhibitors of cGAS targeting protein-DNA interaction and phase separation” (Nature Communications, 2023)
Several values for one entry are separate records, joined by “and”; a condition that tells them apart may be missing. Equal values may be shown once. Square brackets hold non-standard residues; d marks the D form. Peptide text beside a SMILES is read from it.

Experiments:
THP1-Lucia ISG cells = assay: Luciferase reporter assay, dsDNA stimulation; assay type: cell-based, human; parameters: Type I interferon response, luciferase activity, Fig. 1c / luciferase activity, Fig. 2a: scale not given here
Text: To screen direct cGAS inhibitors targeting protein-DNA interface from our developed focused library of macrocyclic peptides, we applied an RNA-based fluorescent biosensor for 2’,3’-cGAMP to detect cGAS activity in vitro (Supplementary Fig. 1a)[49]. The formation of 2’,3’-cGAMP from ATP and GTP was catalyzed by recombinant human cGAS enzyme (hcGAS-ΔN, residues 147–522, Supplementary Fig. 1b) in the presence of ISD (interferon stimulatory DNA, a 45-bp dsDNA), which was readily quantified by the RNA-based fluorescent biosensor and was further confirmed by ion exchange chromatography (Supplementary Fig. 1c). […] Subsequently, a total of 90 macrocyclic peptides were screened at a concentration of 20 μM (Fig. 1a and Supplementary Fig. 1e), and 4 hits (XQ2, XQ8, XQ19, and XQ46) were obtained for further testing at a cut-off of 40% inhibition (Supplementary Table 1). To evaluate the inhibitory effect of the hits against cGAS in cells, we employed real-time quantitative PCR (qPCR) to examine mRNA levels of IFNΒ1 in THP1 cells. The reported cGAS inhibitor RU.521 was used as the positive control, and the non-active peptide XQ28 in the screening assay was used as the negative control. […] The inhibition of cGAS by these hits was further confirmed in the reporter cell line THP1-Lucia ISG (Invivogen) that expresses secreted luciferase induced by an IRF3-inducible ISG54 promoter (Fig. 1c). The discrepancy between the inhibitory effect of the hits in protein and cellular assays may be attributed to their different cellular permeability.
THP1-Lucia ISG cells (Invivogen) were seeded into a 96-well plate and incubated with RU.521 (Invivogen) or XQ2 for the indicated time, and then transfected with dsDNA by lipofectamine 2000 (Invitrogen) or infected by HSV-1 with the indicated titer for 24 h. The supernatant was collected and 50 μL QUANTI-Luc Luciferase reagent (Invivogen) was added to 20 μL supernatants per well, and luciferase luminescence was detected by a microplate reader (BioTek Synergy H1) immediately.

L929 cells = assay: HSV-1 cytopathogenic effect, crystal violet staining; assay type: cell-based, mouse; settings: 10 μM
Protocol: L929 cells were seeded into 12-well plates at a density of 5 × 10^5 cells per well, and living cells were stained with crystal violet staining solution (Beyotime Biotechnology) according to the manufacturer’s instructions.

[1] = tested on: primary bone marrow-derived macrophages (BMDMs) from C57BL/6 mice; assay: qPCR of Ifnb1/Cxcl10 mRNA in BMDMs (ISD or HSV-1); assay type: cell-based, mouse
Protocol: The indicated cells were stimulated with either ISD (Sangon Biotech), HSV-1 (Provided by Dr. Zhengfan Jiang), HSV60mer (Sangon Biotech), SATE-cddA[70], 2’3’-cGAMP (Invivogen, Cat# tlrl-nacga23-1), ADU-S100 (MedChemExpress, Cat# HY-12885A) or Poly(I:C) (Invivogen, Cat# tlrl-pic) after XQ2 or XQ2B treatment. Total RNA was isolated from indicated cells that incubated with the drugs for indicated time or mice tissues by using NucleoZOL reagent (MACHEREY-NAGEL) according to the manufacturer’s instructions. The quantifications of mRNA levels were carried out by real-time PCR using a PerfectStart® Uni RT&qPCR Kit (TransGen Biotech) on the QuantStudio 5 qPCR machine (Applied Biosystems). Samples were carried out in triplicate and the target CT values were normalized to GAPDH CT values. Primers of qPCR used in this study can be found in Supplementary Table S2.
C57BL/6 6–8 weeks old wild type (WT) mice were purchased from Gempharmatech. C57BL/6 Trex1^+/- mice were purchased from Cyagen. Trex1^-/- mice were generated by further mating the male and female Trex1^+/- mice, and 8-week-old male Trex1^-/- mice were used in the experiment. Mice were housed in groups of up to 5 mice/cage at 18 °C − 24 °C ambient temperatures with 40–60% humidity. Mice were maintained on a 12 h light/ dark cycle 6 am to 6 pm. Food and water were available ad libitum. Femurs and tibias were removed from sex-matched mice of 6–8 weeks old, and the ends were clipped. Marrow was pushed from bones by using a syringe, and cell clumps were broken apart into cell particles by pipetting in PBS, and passed through a 70 μm cell strainer. Cells were resuspended in red blood cell lysis buffer (Solarbio) for 5 min after being centrifuged with 200 × g for 5 min, and were resuspended in cell culture media (DMEM) with an additional M-CSF (50 ng/ml) after centrifugation, and then were seeded into a 12-well plate. Half of the cell culture media was replaced with a fresh medium on the third day, and performed a complete media change on the fifth day. BMDMs were used for subsequent experiments after the seventh day. All the animal experiments in these studies were approved and overseen by the ethics committee of the Laboratory Animal Center of Peking University Shenzhen Graduate School in accordance with the Policy on the Care, Welfare, and Treatment of Laboratory Animals. The assigned approval or accreditation number is AP0020005.
Supplementary Fig. 2. […] (a, b) THP1 cells were
(c) L929, p = 0.0005 (Ifnb1),
BMDMs, p = 0.0001 (Ifnb1), p < 0.0001 (Cxcl10).
representative of three independent experiments in (a-g). (Data are presented as mean ± SD, n = 3 independent
Source data are provided as a Source Data file.

CC(C)C[C@@H]1NC(=O)[C@H](CCCNC(=N)N)NC(=O)[C@H](C(C)C)NC(=O)[C@@H]2CCCN2C(=O)[C@@H](Cc2ccccc2)NC(=O)[C@H](CC(C)C)NC(=O)[C@H](CCCNC(=N)N)NC(=O)[C@H](C(C)C)NC(=O)[C@H](C)NC(=O)[C@@H](Cc2ccccc2)NC1=O [XQ2, Cyclo (LfAVRLfPVR)] (cyclo(L[dF]AVRL[dF]PVR))
dsDNA-induced luciferase reporter signal (THP1-Lucia ISG cells): inhibited dsDNA-induced signaling in THP1 cells in a dose-dependent manner with an inhibitory activity comparable to that of RU.521
luciferase activity, Fig. 2a (THP1-Lucia ISG cells; Mock (no dsDNA), compound 10 μM, replicate values): 0.1339 and 0.107 and 0.1281
luciferase activity, Fig. 2a (THP1-Lucia ISG cells; Mock, 1.25 μM): 0.09057 and 0.08624 and 0.1133
luciferase activity, Fig. 2a (THP1-Lucia ISG cells; Mock, 2.5 μM): 0.08177 and 0.0892 and 0.09714
luciferase activity, Fig. 2a (THP1-Lucia ISG cells; Mock, 5 μM): 0.1148 and 0.09368 and 0.09512
luciferase activity, Fig. 2a (THP1-Lucia ISG cells; dsDNA 24 h, 1.25 μM): 0.7893 and 0.9483 and 1.24
luciferase activity, Fig. 2a (THP1-Lucia ISG cells; dsDNA 24 h, 2.5 μM): 1.035 and 1.02 and 0.8001
luciferase activity, Fig. 2a (THP1-Lucia ISG cells; dsDNA 24 h, 5 μM): 0.8667 and 0.7097 and 0.78
luciferase activity, Fig. 2a (THP1-Lucia ISG cells; dsDNA 24 h, compound 10 μM, 3 h pretreatment, replicate values): 0.4481 and 0.3329 and 0.2712
Type I interferon response, luciferase activity, Fig. 1c (THP1-Lucia ISG cells; dsDNA 24 h, replicate values): 0.5575 and 0.4465 and 0.4391
HSV-1-induced cytopathogenic effect in L929 cells (L929 cells): promotion of XQ2 on HSV-1-induced cytopathogenic effect in mouse fibroblast L929 cells
Ifnb1 and Cxcl10 expression induced by ISD and HSV-1 ([1]; 10 μM): significantly inhibited the expression of Ifnb1 and its downstream gene Cxcl10
Cxcl10 mRNA (Fig. S2d) ([1]; HSV-1+XQ2): 143.811 and 140.79 and 131.38
Ifnb1 mRNA (Fig. S2d) ([1]; HSV-1+XQ2): 30.4765 and 34.353 and 35.6259
Cxcl10 mRNA (Fig. S2c) ([1]; ISD+XQ2): 62.8779 and 59.0359 and 62.3708
Ifnb1 mRNA (Fig. S2c) ([1]; ISD+XQ2): 709.298 and 846.919 and 741.167
Cxcl10 mRNA (Fig. S2c) ([1]; XQ2 alone): 1.406 and 1.738 and 1.597
Cxcl10 mRNA (Fig. S2d) ([1]; XQ2 alone): 1.406 and 1.738 and 1.597
Ifnb1 mRNA (Fig. S2c) ([1]; XQ2 alone): 0.9266 and 0.5519 and 1.072
Ifnb1 mRNA (Fig. S2d) ([1]; XQ2 alone): 0.9266 and 0.5519 and 1.072
